Data from US20210300943A1, “OGA INHIBITOR COMPOUNDS” (Janssen Pharmaceutica NV, priority 2018, published 2021).
Where a name gives a salt, the structure may show the parent alone.

Assays:
[1] = biological target: T1, OGA (Homo sapiens, UniProt O60502); assay: OGA cellular assay (ICC detection of O-GlcNAcylated proteins in HEK293 cells inducible for P301L mutant human Tau); type: cell-based
T1 construct: endogenous in cells; host or cells: HEK293 cells inducible for P301L mutant human Tau (2N4R)
T1 sequence (O60502 1-916): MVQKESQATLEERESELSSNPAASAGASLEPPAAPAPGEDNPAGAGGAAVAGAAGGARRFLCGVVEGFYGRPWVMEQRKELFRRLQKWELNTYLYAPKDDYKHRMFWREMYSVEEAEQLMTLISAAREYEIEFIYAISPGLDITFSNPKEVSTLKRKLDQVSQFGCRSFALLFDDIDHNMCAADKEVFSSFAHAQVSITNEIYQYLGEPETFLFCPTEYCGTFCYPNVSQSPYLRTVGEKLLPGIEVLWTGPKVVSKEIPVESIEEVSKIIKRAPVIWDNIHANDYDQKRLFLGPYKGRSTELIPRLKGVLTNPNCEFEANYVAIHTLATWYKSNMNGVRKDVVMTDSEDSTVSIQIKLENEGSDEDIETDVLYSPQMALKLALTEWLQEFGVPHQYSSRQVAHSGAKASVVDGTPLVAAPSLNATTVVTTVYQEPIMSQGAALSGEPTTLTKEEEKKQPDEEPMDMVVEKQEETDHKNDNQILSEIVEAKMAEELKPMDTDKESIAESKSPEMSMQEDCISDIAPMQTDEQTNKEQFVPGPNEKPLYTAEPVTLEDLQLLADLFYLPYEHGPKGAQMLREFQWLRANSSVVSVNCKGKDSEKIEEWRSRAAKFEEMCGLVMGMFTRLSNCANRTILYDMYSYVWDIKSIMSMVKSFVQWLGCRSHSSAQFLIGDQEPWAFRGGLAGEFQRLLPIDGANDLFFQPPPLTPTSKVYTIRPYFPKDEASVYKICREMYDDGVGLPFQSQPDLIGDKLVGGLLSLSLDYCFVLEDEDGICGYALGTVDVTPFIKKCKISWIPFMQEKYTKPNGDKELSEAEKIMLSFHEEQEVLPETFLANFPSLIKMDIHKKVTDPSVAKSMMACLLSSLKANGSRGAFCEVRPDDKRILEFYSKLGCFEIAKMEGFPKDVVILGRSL
Summary of the method: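 HEK293 cells inducible for P301L Tau, in low-glucose assay medium, treated 6 h with compound at 0.2% DMSO. O-GlcNAcylated proteins detected by CTD110.6 immunostaining, imaged at 488 nm with Hoechst nuclear counts for toxicity. IC50 from non-linear regression, 200 uM Thiamet G as maximum.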

[2] = biological target: T2, recombinant human Meningioma Expressed Antigen 5 (MGEA5), also referred to as O-GlcNAcase (OGA) (Homo sapiens, UniProt O60502); assay: OGA biochemical assay (inhibition of FM-GlcNAc hydrolysis, fluorescence)
T2 construct: Full length OGA enzyme was purchased at OnGene (cat #TP322411); purchased OnGene (so in the source)
T2 sequence (O60502 1-916): T1 sequence (O60502 1-916)
Summary of the method: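 Full-length recombinant OGA (2 nM) pre-incubated with compound 60 min at room temperature, then FM-GlcNAc (100 µM final) added in citrate/phosphate buffer pH 7.2 with 0.005% Tween-20. After 6 h at room temperature, stopped with carbonate pH 11.0; fluorescein read at 485/538 nm; IC50 and Hill coefficient from curve fit.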

Row | Structure (SMILES) | melting point [°C] | other results
1 | Cc1cc(NCC2CCCN(C(C)c3ccc4c(n3)OCCO4)C2)cc(C)n1 (centres unmarked) (as salt: HCl) [Product 21] | 193 | 
2 | Cc1cc(NCC2CCCN(C(C)c3ccc4c(c3)OCC4)C2)cc(C)n1 (centres unmarked) (as salt: HCl) [Product 22] | 248.4 | 
3 | COc1cc(NCC2CCCN(C(C)c3ccc4c(n3)OCCO4)C2)cc(C)n1 (centres unmarked) (as salt: HCl) [Product 23] | 266.7 | 
4 | COc1cc(NCC2CCCN(C(C)c3ccc4c(c3)OCC4)C2)cc(C)n1 (centres unmarked) (as salt: HCl) [Product 30] | 261.3 | 
5 | COc1cc(NCC2CCCN(C(C)c3cc4c(cc3F)OCCO4)C2)cc(C)n1 (centres unmarked) (as salt: HCl) [Product 38] | 164.7 | 
6 | Cc1cc(NCC2CCCN(C(C)c3cc4c(cc3F)OCCO4)C2)cc(C(F)(F)F)n1 (centres unmarked) (as salt: HCl) [Product 99] | 235.3 | 
7 | Cc1cc(C[C@H]2CCCN(C(C)c3ccc4c(n3)OCC(=O)N4)C2)cc(C)n1 (single isomer, unassigned) [Product 61] | 62.45 | Emax ([1]; HEK293, HEK293 cells inducible for P301L mutant human Tau, maximal effect, Thiamet G 200 uM as maximum): 45%; EC50 ([1]; HEK293 cells inducible for P301L mutant human Tau, 6 hours incubation, read-out: Cellular hOGA, pEC50 (converted)): > 1000 nM; Enzymatic Emax (%) ([2]; maximal effect): 102%; IC50 ([2]; read-out: Enzymatic hOGA, pIC50 (converted)): 39.8 nM
